The text below walks through data of ChEMBL document CHEMBL4888484, “Replenishing the malaria drug discovery pipeline: Screening and hit evaluation of the MMV Hit Generation Library 1 (HGL1) against asexual blood stage Plasmodium falciparum ,using a nano luciferase reporter read-out” (2022).

What is called IC50 is the concentration that gives 50% inhibition. The low end stands for inhibition by little substance, the high end for a need for much substance.

Data set [1] can be described thus: Hit confirmation in dose-response curve in HepG2 cytotoxicity assay, at 72h. It is filed as toxicity, cell-based. Also on record: timepoint 72 hour. Particulars: human, HepG2 cells.
The test system of data set [2] is Plasmodium falciparum. The data set can be described thus: Hit confirmation in dose-response curve in NF54 nanoGlo assay, at 72h. On the set-up: timepoint 72 hour. It is filed as functional, organism-based, Erythrocyte.
For data set [3], the system named is Plasmodium falciparum. The data set can be described thus: Hit confirmation in dose-response curve in NF54 nanoGlo assay, at 12h. It is filed as functional, organism-based, Erythrocyte. On the set-up: timepoint 12 hour.
For data set [4], the system named is Plasmodium falciparum. Put plainly: Hit confirmation in dose-response curve in Dd2 pLDH assay, at 72h. Also on record: timepoint 72 hour. It counts as functional, organism-based. As to conditions: Dd2, Erythrocyte.
The subject of data set [5] is Plasmodium falciparum. The data set can be described thus: Hit confirmation in dose-response curve in NF54 pLDH assay, at 72h. It counts as functional, organism-based. Also on record: timepoint 72 hour. Particulars: NF54, Erythrocyte.
The mark [6] stands for this setting: Plasmodium falciparum, NF54, Erythrocyte, 72 h.
Where [7] appears, read: Plasmodium falciparum, NF54, Erythrocyte, 12 h.

Structures are written as SMILES.

For `CCOc1ccc(C2c3[nH]c4ccccc4c3C[C@H]3C(=O)N(C4CCN(Cc5ccccc5)CC4)CC(=O)N23)cc1OC` (some centres undefined), the IC50 at 72 h in data set [1] is over 10000 nM. The IC50 came to 1150 nM in data set [2] (setting [6]), 2690 nM in data set [3] (setting [7]), 2750 nM in data set [4] and 5130 nM in data set [5].
Taken in the same sequence, the figures for `CCOc1cc(CNc2cccc3ccccc23)cc(Br)c1OCC(=O)NC(C)(C)C` were over 10000 nM, over 10000 nM, over 10000 nM, over 10000 nM and over 10000 nM.
Taken in the same sequence, the figures for `COc1ccc(-[n+]2c(-c3ccccc3)cn3c2CCC3)cc1` were over 10000 nM, 794 nM, over 10000 nM, 776 nM and 1410 nM.
In the same order, the values of `COc1ccc(C(=O)C[n+]2cc(-c3ccc(OC)cc3)n3c2CCCC3)cc1` are over 10000 nM, 1410 nM, over 10000 nM, 1480 nM and 2340 nM.
In data set [1], `COc1ccc(-c2c[n+](-c3ccc(Cl)cc3)c3n2CCCCC3)cc1` came in with an IC50 at 72 h of over 10000 nM. For the same molecule, the 50% inhibitory concentration (IC50) was 1380 nM in data set [2] (setting [6]), over 10000 nM in data set [3] (setting [7]), 1000 nM in data set [4] and 2240 nM in data set [5].
On to `CC[n+]1c(/C=C/N(C)c2ccccc2)oc2ccccc21`, for which the IC50 at 72 h in data set [1] is over 10000 nM. The IC50 in data set [2] (setting [6]) is 724 nM; in data set [3] (setting [7]) it was over 10000 nM; in data set [4] it was 661 nM; in data set [5], 741 nM.
`COc1ccc(C(=O)C[n+]2nc(CNc3ccc(Br)cc3)n3c2CCCCC3)cc1` came in with an IC50 at 72 h in data set [1] of over 10000 nM. Moreover, the IC50 in data set [2] (setting [6]) was found to be 537 nM; in data set [3] (setting [7]), 9550 nM; in data set [4] it was 646 nM; in data set [5], 759 nM.
In data set [1], `NC(=O)C1CCN(CCC(=O)N2CCc3cc4ccc3[C@@H]2c2cccc(c2)OCCCNC(=O)c2cc(ccc2O)O4)CC1` showed an IC50 at 72 h of over 10000 nM. In data set [3] (setting [7]), 3160 nM corresponded to half-maximal inhibition (IC50).
In turn, `CC[N+](C)(CC)CCOc1cc(C)c2ccccc2n1` gave a 50% inhibitory concentration (IC50) at 72 h in data set [1] of over 10000 nM. The IC50 is 2240 nM in data set [2] (setting [6]), over 10000 nM in data set [3] (setting [7]), 2690 nM in data set [4] and 4680 nM in data set [5].
Take `COc1ccc(C(=O)Nc2ccc3c(c2)C(=O)Nc2cccnc2O3)cc1OC`: the IC50 at 72 h in data set [1] was over 10000 nM. In addition, the concentration for half-maximal inhibition (IC50) in data set [2] (setting [6]) was 3160 nM; in data set [3] (setting [7]) it was 11000 nM; in data set [4] it was over 10000 nM; in data set [5], over 10000 nM.
`COc1ccc(-[n+]2c(-c3ccc(-c4ccccc4)cc3)cn3c2COCC3)cc1` gave an IC50 at 72 h in data set [1] of over 10000 nM. Further, the IC50 is 2140 nM in data set [2] (setting [6]), over 10000 nM in data set [3] (setting [7]), 2090 nM in data set [4] and 2400 nM in data set [5].
`O=c1[nH]c(=O)n(S(=O)(=O)c2ccccc2)cc1F` gave an IC50 at 72 h in data set [1] of over 10000 nM. Further, the half-maximal inhibitory concentration (IC50) in data set [2] (setting [6]) was 2.75 nM; in data set [3] (setting [7]), 2040 nM; in data set [4], over 10000 nM; in data set [5], 3.47 nM.
For the molecule `CN(C)CC(O)COc1ccc(S(=O)(=O)c2ccc(OCC(O)CN(C)C)c(Cl)c2)cc1Cl` (centres undefined), in data set [1], the IC50 at 72 h is over 10000 nM. Further, the IC50 in data set [2] (setting [6]) is 1510 nM; in data set [3] (setting [7]), 3980 nM; in data set [4], 1380 nM; in data set [5], 2450 nM.
With `COC[C@H](NCCc1cc(F)cc2c1OCOC2)C1CC1`, the IC50 at 72 h in data set [1] was over 10000 nM. In addition, the half-maximal inhibitory concentration (IC50) in data set [2] (setting [6]) was 661 nM; in data set [3] (setting [7]), over 10000 nM; in data set [4] it was over 10000 nM; in data set [5] it was 891 nM.
Consider `c1ccc(-c2nc(C[n+]3ccc4c(c3)CCCC4)cs2)cc1`, for which, in data set [1], the IC50 at 72 h was over 10000 nM. Moreover, the half-inhibitory concentration (IC50) in data set [2] (setting [6]) is 1200 nM; in data set [3] (setting [7]), over 10000 nM; in data set [4] it was 832 nM; in data set [5], 89.1 nM.
In data set [1], `COc1ccc(CCNc2oc(-c3cccnc3)nc2C#N)cc1OC` displayed an IC50 at 72 h of over 10000 nM. The IC50 was 3980 nM in data set [2] (setting [6]), 2400 nM in data set [3] (setting [7]), over 10000 nM in data set [4] and over 10000 nM in data set [5].
As to `Nc1nc2c(s1)CN(CCc1ccccc1)CC2`, in data set [1], the IC50 at 72 h was over 10000 nM. In addition, the half-maximal inhibitory concentration (IC50) is 3980 nM in data set [2] (setting [6]), over 10000 nM in data set [3] (setting [7]), 5620 nM in data set [4] and 6920 nM in data set [5].
In data set [1], `CC(C)[C@@H]1CC[C@H](C)C[C@H]1OC(=O)Cn1cc(-c2ccc(Cl)cc2)[n+]2c1CCC2` displayed an IC50 at 72 h of over 10000 nM. For the same molecule, the half-inhibitory concentration (IC50) in data set [2] (setting [6]) worked out at 955 nM; in data set [3] (setting [7]) it was 5010 nM; in data set [4], 1200 nM; in data set [5], 2340 nM.
Taken in the same sequence, the figures for `COc1ccccc1C1c2[nH]c3ccccc3c2C[C@H]2C(=O)N(CC(O)c3ccccc3)CC(=O)N12` (some centres undefined) were over 10000 nM, 3160 nM, 4470 nM, over 10000 nM and 8910 nM.
The molecule `C[C@@H](CNc1nc(-c2ccccc2)nc2nc(-c3ccc(Cl)cc3)oc12)N1CCCCC1` came in with an IC50 at 72 h in data set [1] of over 10000 nM. Further, the half-inhibitory concentration (IC50) in data set [2] (setting [6]) stood at 3390 nM; in data set [3] (setting [7]), 9550 nM; in data set [4], 5890 nM; in data set [5], 7590 nM.
In the same order, the values of `Cc1ccc2nc(-c3cc4ccccc4o3)cn2c1` are over 10000 nM, 2040 nM, over 10000 nM, 2690 nM and 3020 nM.
In the same order, the values of `C[n+]1ccccc1/C=C/c1c[nH]c2ccccc12` are 7940 nM, 407 nM, 5010 nM, 437 nM and 676 nM.
In the same order, the values of `COc1ccc(CCc2nc(NC(=O)c3nc(C)sc3C)n[nH]2)cc1OC` are over 10000 nM, 1450 nM, 676 nM, over 10000 nM and over 10000 nM.
Regarding `COc1ccc2[nH]c3c(c2c1)CC(C(=O)O)NC3c1ccc(OC)c(CN2CCN(c3ccccc3F)CC2)c1` (centres undefined), the half-maximal inhibitory concentration (IC50) at 72 h in data set [1] was over 10000 nM. In addition, the IC50 was 1550 nM in data set [2] (setting [6]), 3980 nM in data set [3] (setting [7]), 2880 nM in data set [4] and 3800 nM in data set [5].
For `Cc1cc(=O)c(OCC(=O)N2CCN([C@@H](c3ccccc3)c3ccc(Cl)cc3)CC2)c[nH]1`, the IC50 at 72 h in data set [1] is over 10000 nM. The half-maximal inhibitory concentration (IC50) in data set [2] (setting [6]) was 1860 nM; in data set [3] (setting [7]), over 10000 nM; in data set [4], 3470 nM; in data set [5] it was 5010 nM.
For `CC[N+](CC)(CC(=O)OC1CC2CCC1(C)C2(C)C)CC(=O)OC1CC2CCC1(C)C2(C)C` (centres undefined), the IC50 at 72 h in data set [1] is over 10000 nM. The IC50 worked out at 1820 nM in data set [2] (setting [6]), 4680 nM in data set [3] (setting [7]), 2190 nM in data set [4] and 2820 nM in data set [5].
In the same order, the values of `N#Cc1nc2c(C#N)c(N)n(CCc3ccccc3)c2nc1C#N` are over 10000 nM, 1380 nM, 2040 nM, 1450 nM and 347 nM.
`c1ccc2c[n+](Cc3ccc4ccccc4n3)ccc2c1` came in with an IC50 at 72 h in data set [1] of over 10000 nM. The IC50 is 1950 nM in data set [2] (setting [6]), over 10000 nM in data set [3] (setting [7]), 2450 nM in data set [4] and 2570 nM in data set [5].
As to `COc1cccc(-c2nc(C)c(C(=O)Nc3n[nH]c(CC(C)C)n3)s2)c1`, the IC50 at 72 h in data set [1] was over 10000 nM. The IC50 was 676 nM in data set [2] (setting [6]); 1170 nM in data set [2] (erythrocyte); 794 nM in data set [3] (setting [7]); 631 nM in data set [3] (erythrocyte); over 10000 nM in data set [4]; over 10000 nM in data set [5].
`Cc1nn(-c2ccccn2)c(O)c1C(c1ccccc1)c1c(C)nn(-c2ccccn2)c1O` came in with an IC50 at 72 h in data set [1] of over 10000 nM. Moreover, the IC50 in data set [2] (setting [6]) worked out at 1020 nM; in data set [3] (setting [7]), 1000 nM; in data set [4] it was 3550 nM; in data set [5] it was 5500 nM.
In the same order, the values of `CN1CCCN(c2ccnc3ccsc23)CC1` are over 10000 nM, 2950 nM, 3800 nM, 2450 nM and 3800 nM.
In the same order, the values of `C[N+]12CCCCC1C(OC(=O)C1(c3ccccc3)CCCC1)CCC2` (centres undefined) are over 10000 nM, 2040 nM, over 10000 nM, 2040 nM and 2820 nM.
For the molecule `CCOC1CC(NC2CC(c3ccc(F)cc3)C2)C12CCC2` (centres undefined), the IC50 at 72 h in data set [1] is over 10000 nM. Besides, the IC50 in data set [2] (setting [6]) was 5010 nM; in data set [3] (setting [7]), 6310 nM; in data set [4], 2630 nM; in data set [5] it was 3630 nM.
In the same order, the values of `CCCN1C(=O)c2ccccc2N2C(=O)CC[C@@]12C(=O)Nc1ccc(OC)cc1` are over 10000 nM, 1450 nM, 1380 nM, 2750 nM and 3470 nM.
As for `CCCN1C(=O)c2ccccc2N2C(=O)CC[C@@]12C(=O)Nc1ccccc1`, in data set [1], the half-inhibitory concentration (IC50) at 72 h was over 10000 nM. Also, the IC50 in data set [2] (setting [6]) is 1100 nM; in data set [3] (setting [7]), 1660 nM; in data set [4], 2880 nM; in data set [5], 4170 nM.
In the same order, the values of `Cn1ccnc1[C@@H]1CCCN1Cc1nccn1Cc1ccccc1` are over 10000 nM, 2090 nM, 6760 nM, 3240 nM and 2820 nM.
For `COc1ccc(CCNC(=O)C2CCN(c3nccn4nc5c(c34)CCCC5)CC2)cc1OC`, in data set [1], the IC50 at 72 h is over 10000 nM. Further, the IC50 was 4070 nM in data set [2] (setting [6]), 8910 nM in data set [3] (setting [7]), over 10000 nM in data set [4] and over 10000 nM in data set [5].
